According to ChEMBL document CHEMBL4368907 (J Med Chem, 2019):
Numbered stars: 1 amine (or outer) side, 2 acyl side, 3 side chain; on linkers, the order of the positions; unused ones are H or OH. Square brackets hold non-standard residues; d marks the D form. Side chains are listed from the residue outwards. Peptide text beside a SMILES is read from it. * marks the point of attachment. Ala(indol-2-yl) = N[C@@H](Cc1cc2ccccc2[nH]1)C(=O)O; sY = N[C@@H](Cc1ccc(OS(=O)(=O)O)cc1)C(=O)O; C18 diacid = O=C(O)CCCCCCCCCCCCCCCCC(=O)*; γGlu = O=C(O)[C@H](CCC(=O)[*:2])N[*:1]; NMeF = CN[C@@H](Cc1ccccc1)C(=O)O; NMeD = CN[C@@H](CC(=O)O)C(=O)O; Nle = CCCC[C@H](N)C(=O)O; AEEA = NCCOCCOCC(=O)O

Legend:
[1] = molecular target: T1, Cholecystokinin receptor type A (Homo sapiens, UniProt P32238); experiment: Displacement of [125I]-CCK-8 from human CCK1R expressed in human 1321N1 cell membranes after 2 hrs by SPA assay
T1 sequence (P32238 whole entry): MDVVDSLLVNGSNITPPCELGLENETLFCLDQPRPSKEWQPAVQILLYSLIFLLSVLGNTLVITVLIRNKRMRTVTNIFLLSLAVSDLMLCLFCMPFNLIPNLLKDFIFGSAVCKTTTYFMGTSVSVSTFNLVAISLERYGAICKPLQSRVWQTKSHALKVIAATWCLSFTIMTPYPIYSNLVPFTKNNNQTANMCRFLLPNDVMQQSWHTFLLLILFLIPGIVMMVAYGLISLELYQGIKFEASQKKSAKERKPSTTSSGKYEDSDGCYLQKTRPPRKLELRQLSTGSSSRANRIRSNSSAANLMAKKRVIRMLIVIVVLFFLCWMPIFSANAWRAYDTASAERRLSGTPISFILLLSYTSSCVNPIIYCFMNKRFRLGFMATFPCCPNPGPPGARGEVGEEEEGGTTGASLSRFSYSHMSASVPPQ

[2] = molecular target: T2, Gastrin/cholecystokinin type B receptor (Homo sapiens, UniProt P32239); experiment: Displacement of [125I]-CCK-8 from human CCK2R expressed in human 1321N1 cell membranes after 2 hrs by SPA assay
T2 sequence (P32239 whole entry): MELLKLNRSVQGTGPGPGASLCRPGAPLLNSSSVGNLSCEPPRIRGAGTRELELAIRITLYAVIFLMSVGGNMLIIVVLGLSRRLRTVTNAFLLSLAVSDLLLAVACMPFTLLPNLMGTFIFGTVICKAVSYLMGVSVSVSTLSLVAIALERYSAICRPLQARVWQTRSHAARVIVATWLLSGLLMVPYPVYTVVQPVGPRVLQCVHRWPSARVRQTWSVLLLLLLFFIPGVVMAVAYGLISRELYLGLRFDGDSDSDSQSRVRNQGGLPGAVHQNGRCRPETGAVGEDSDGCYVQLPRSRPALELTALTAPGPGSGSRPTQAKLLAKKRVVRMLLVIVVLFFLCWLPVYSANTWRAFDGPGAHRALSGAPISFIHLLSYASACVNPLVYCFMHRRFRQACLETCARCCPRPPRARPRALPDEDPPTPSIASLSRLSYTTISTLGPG

[3] = molecular target: T1, Cholecystokinin receptor type A; experiment: Agonist activity at human CCK1R expressed in human 1321N1 cells assessed as IP1 accumulation after 1 hr by HTRF assay; type: functional, cell-based
[4] = molecular target: T2, Gastrin/cholecystokinin type B receptor; experiment: Agonist activity at human CCK2R expressed in human 1321N1 cells assessed as IP1 accumulation after 1 hr by HTRF assay; type: functional, cell-based

Row | SMILES | pIC50 [1] | pIC50 [2] | pEC50 [3] | pEC50 [4] | IC50 [1] | IC50 [2] | EC50 [3] | EC50 [4]
1 | CCCC[C@H](NC(=O)[C@H](Cc1cc2ccccc2[nH]1)NC(=O)CNC(=O)[C@H](CCCCNC(=O)COCCOCCNC(=O)COCCOCCNC(=O)CC[C@H](NC(=O)CCCCCCCCCCCCCCCCC(=O)O)C(=O)O)NC(=O)[C@H](Cc1ccc(OS(=O)(=O)O)cc1)NC(=O)[C@H](CC(=O)O)NC(C)=O)C(=O)N(C)[C@@H](CC(=O)O)C(=O)N(C)[C@@H](Cc1ccccc1)C(N)=O (Ac-D[sY]K([AEEA-AEEA-γGlu-C18 diacid])G[Ala(indol-2-yl)][Nle][NMeD][NMeF]-NH2) | 10.19 | 6.24 | 9.61 | 6.5 | – | – | – | –
2 | CCCC[C@H](NC(=O)[C@H](Cc1c[nH]c2ccccc12)NC(=O)CNC(=O)[C@H](CC(C)C)NC(=O)[C@H](Cc1ccc(OS(=O)(=O)O)cc1)NC(=O)[C@H](CC(=O)O)NC(=O)COCCOCCNC(=O)COCCOCCNC(=O)CC[C@H](NC(=O)CCCCCCCCCCCCCCCCC(=O)O)C(=O)O)C(=O)N1CCC[C@H]1C(=O)N(C)[C@@H](Cc1ccccc1)C(N)=O ({C18 diacid-γGlu-AEEA-AEEA}-D[sY]LGW[Nle]P[NMeF]-NH2) | 7.39 | 5.27 | 6.61 | < 6 | – | – | – | –
3 | CCCC[C@H](NC(=O)[C@H](Cc1c[nH]c2ccccc12)NC(=O)[C@@H]1CCCN1C(=O)[C@H](CCCC)NC(=O)[C@H](Cc1ccc(OS(=O)(=O)O)cc1)NC(=O)[C@H](CC(=O)O)NC(=O)COCCOCCNC(=O)COCCOCCNC(=O)CC[C@H](NC(=O)CCCCCCCCCCCCCCCCC(=O)O)C(=O)O)C(=O)N[C@@H](CC(=O)O)C(=O)N[C@@H](Cc1ccccc1)C(N)=O ({C18 diacid-γGlu-AEEA-AEEA}-D[sY][Nle]PW[Nle]DF-NH2) | – | – | – | – | 933 nM | 0.589 nM | 603 nM | 0.38 nM

Continued, values first:

Row | pIC50 [1] | pIC50 [2] | pEC50 [3] | pEC50 [4] | IC50 [1] | IC50 [2] | EC50 [3] | EC50 [4] | SMILES
4 | – | – | – | – | 2570 nM | 13.5 nM | 912 nM | 0.832 nM | CCCC[C@H](NC(=O)[C@H](Cc1c[nH]c2ccccc12)NC(=O)[C@H](CCCCN)NC(=O)[C@H](CCCC)NC(=O)[C@H](Cc1ccc(OS(=O)(=O)O)cc1)NC(=O)[C@H](CC(=O)O)NC(=O)COCCOCCNC(=O)COCCOCCNC(=O)CC[C@H](NC(=O)CCCCCCCCCCCCCCCCC(=O)O)C(=O)O)C(=O)N[C@@H](CC(=O)O)C(=O)N[C@@H](Cc1ccccc1)C(N)=O ({C18 diacid-γGlu-AEEA-AEEA}-D[sY][Nle]KW[Nle]DF-NH2)
5 | – | – | – | – | 3980 nM | 0.151 nM | > 1000 nM | 0.437 nM | CCCC[C@H](NC(=O)[C@H](Cc1c[nH]c2ccccc12)NC(=O)[C@H](CCC(=O)O)NC(=O)[C@H](CCCC)NC(=O)[C@H](Cc1ccc(OS(=O)(=O)O)cc1)NC(=O)[C@H](CC(=O)O)NC(=O)COCCOCCNC(=O)COCCOCCNC(=O)CC[C@H](NC(=O)CCCCCCCCCCCCCCCCC(=O)O)C(=O)O)C(=O)N[C@@H](CC(=O)O)C(=O)N[C@@H](Cc1ccccc1)C(N)=O ({C18 diacid-γGlu-AEEA-AEEA}-D[sY][Nle]EW[Nle]DF-NH2)
6 | – | – | – | – | 19.1 nM | 309 nM | 11.7 nM | 5.75 nM | CCCC[C@H](NC(=O)[C@H](Cc1ccc(OS(=O)(=O)O)cc1)NC(=O)[C@H](CC(=O)O)NC(=O)COCCOCCNC(=O)COCCOCCNC(=O)CC[C@H](NC(=O)CCCCCCCCCCCCCCCCC(=O)O)C(=O)O)C(=O)NCC(=O)N[C@@H](Cc1c[nH]c2ccccc12)C(=O)N[C@@H](CCCC)C(=O)N[C@@H](CC(N)=O)C(=O)N[C@@H](Cc1ccccc1)C(N)=O ({C18 diacid-γGlu-AEEA-AEEA}-D[sY][Nle]GW[Nle]NF-NH2)
7 | – | – | – | – | 2.24 nM | 0.132 nM | 0.324 nM | 0.417 nM | CCCC[C@H](NC(=O)[C@H](Cc1ccc(OS(=O)(=O)O)cc1)NC(=O)[C@H](CC(=O)O)NC(=O)COCCOCCNC(=O)COCCOCCNC(=O)CC[C@H](NC(=O)CCCCCCCCCCCCCCCCC(=O)O)C(=O)O)C(=O)NCC(=O)N[C@@H](Cc1c[nH]c2ccccc12)C(=O)N[C@@H](CCCC)C(=O)N[C@@H](CC(=O)O)C(=O)N[C@@H](Cc1c[nH]c2ccccc12)C(N)=O ({C18 diacid-γGlu-AEEA-AEEA}-D[sY][Nle]GW[Nle]DW-NH2)
